# Laboratory results published in ChEMBL document CHEMBL1125820, “Structure-activity relationship of mutagenic aromatic and heteroaromatic nitro compounds. Correlation with molecular orbital energies and hydrophobicity” (J Med Chem, 1991).
# How the values were obtained:
# [1] = Partition coefficient (logP); details: octanol/water
# Salmonella typhimurium = assay: Mutagenic activity in an Ames test on Salmonella Typhimurium TA98; Activity is log of revertants/nmol; type: functional, Salmonella enterica subsp. enterica serovar Typhimurium; design: scale not given here
SMILES,logP [1],Activity (Salmonella typhimurium)
Nc1ccc(-c2ccc([N+](=O)[O-])cc2)cc1,2.68,–
CC(=O)Oc1cc([N+](=O)[O-])c2ccc3cccc4ccc1c2c43,4.42,4.22
O=[N+]([O-])c1cc([N+](=O)[O-])c2ccccc2c1,2.83,-0.05
O=Cc1ccc([N+](=O)[O-])cc1,1.56,–
Nc1cccc(-c2ccc([N+](=O)[O-])cc2)c1,2.68,0.25
O=[N+]([O-])c1ccc2[nH]c3ccccc3c2c1,3.51,-0.7
O=[N+]([O-])c1ccc2c(c1)Cc1cc(F)ccc1-2,4.11,2.68
O=[N+]([O-])c1ccc2ccc3cc4ccccc4c4ccc1c2c34,5.87,2.63
O=[N+]([O-])c1cc2cccc3ccc4cccc1c4c32,4.69,–
O=[N+]([O-])C1=CC=CC2Nc3ccccc3NC12 (stereo unspecified),2.52,0.87
O=[N+]([O-])c1cccc2cc[nH]c12,2.13,–
O=[N+]([O-])c1cccc(F)c1,1.9,–
CN1Cc2cc([N+](=O)[O-])ccc2N1,1.77,-1.1
O=[N+]([O-])c1ccc2c3ccccc3c3ccccc3c2c1,5.41,4.09
O=[N+]([O-])c1ccc2c3c([N+](=O)[O-])ccc4ccc5ccc6ccc1c2c6c5c43,6.07,4.33
O=[N+]([O-])c1ccc2c(c1)CCN2,2.07,–
O=[N+]([O-])c1ccc2c3c(cccc13)-c1cc3ccccc3cc1-2,5.87,2.76
Nc1ccc2ccc3ccc([N+](=O)[O-])c4ccc1c2c34,3.63,2.43
O=[N+]([O-])c1ccc2c(c1)C=CC2,2.74,0.08
O=[N+]([O-])c1ccc2nc3ccccc3nc2c1,2.52,–
Cc1ccc2c(c1)Cc1cc([N+](=O)[O-])ccc1-2,4.62,2.36
Cn1ccc2cc([N+](=O)[O-])ccc21,2.5,–
O=[N+]([O-])c1cc2c3c(c1)CCc1cc([N+](=O)[O-])cc(c1-3)CC2,5.02,3.5
O=[N+]([O-])c1ccc2c(c1)Oc1cc(Cl)c(Cl)cc1O2,6.24,1.73
O=[N+]([O-])c1ccc(Cl)cc1Cl,3.09,–
O=[N+]([O-])c1ccc2cccc3c2c1C=C3,3.36,1.77

SMILES,logP [1],Activity (Salmonella typhimurium)
O=[N+]([O-])c1cc2c3c(cccc3c1[N+](=O)[O-])-c1ccccc1-2,4.44,2.62
O=[N+]([O-])c1ccc2ccc3cccc4c5c(c1c2c34)CCCC5,6.26,0.7
Cc1ccccc1-c1ccc([N+](=O)[O-])c(C)c1,4.49,-0.84
O=[N+]([O-])c1c2cccc(O)c2cc2c1ccc1ccccc12,5.06,–
O=[N+]([O-])c1cc2c(cc1Cl)Oc1cc(Cl)c(Cl)cc1O2,6.68,-0.53
O=[N+]([O-])c1ccc2c(ccc3c4ccccc4ccc23)c1,5.41,-0.22
O=[N+]([O-])c1cc2c3c(ccc([N+](=O)[O-])c3c1)-c1ccccc1-2,4.44,3.78
O=[N+]([O-])c1cccc(Cl)c1,2.41,–
O=[N+]([O-])c1ccc2c3ccccc3c3cccc4ccc1c2c43,5.87,–
COc1cc([N+](=O)[O-])c2ncccc2c1,1.87,-1.21
Cc1cc2ccccc2cc1[N+](=O)[O-],3.43,0
O=[N+]([O-])c1ccc2c3c(c4c([N+](=O)[O-])ccc5ccc1c2c54)CCCC3,6.01,2.41
O=[N+]([O-])c1cccc2c([N+](=O)[O-])cccc12,2.58,0.52
O=[N+]([O-])c1c2c(cc3ccccc13)C=CC(O)C2O (stereo unspecified),1.38,–
Cc1cc(-c2ccccc2)ccc1[N+](=O)[O-],3.99,-0.1
Cn1ncc2cc([N+](=O)[O-])ccc21,1.77,-0.82
O=[N+]([O-])c1ccc(Cl)c(Cl)c1,3.12,–
Cc1ccccc1-c1ccc([N+](=O)[O-])cc1,4.27,-0.23
Nc1c(Br)cc([N+](=O)[O-])cc1[N+](=O)[O-],2.78,-1.32
O=[N+]([O-])c1ccc2ccc3ccc(O)c4ccc1c2c34,4.19,1.49
O=[N+]([O-])c1cccc2cccc([N+](=O)[O-])c12,2.52,0.9
O=[N+]([O-])c1c2ccccc2cc2c3c(ccc12)C(O)C(O)C=C3 (stereo unspecified),2.55,–
O=[N+]([O-])c1ccc2c3ccccc3c3c([N+](=O)[O-])ccc4ccc1c2c43,5.61,1.99
O=[N+]([O-])c1cccc2c3ccccc3c3ccccc3c12,5.41,–
O=[N+]([O-])c1cccc2cccnc12,1.44,–
O=[N+]([O-])c1cc2c3c(c1)CCc1cccc(c1-3)CC2,5.28,1.58

SMILES,logP [1],Activity (Salmonella typhimurium)
O=[N+]([O-])c1ccc2c(c1)Cc1cc([N+](=O)[O-])ccc1-2,3.35,3.22
O=[N+]([O-])c1cccc2[nH]ccc12,2.13,–
CCOc1ccccc1[N+](=O)[O-],2.35,-2.22
O=[N+]([O-])c1c2c(c3ccc4cccc5ccc1c3c45)CCCC2,6.57,–
O=[N+]([O-])c1c2c(cc3ccccc13)C(O)C(O)C=C2 (stereo unspecified),3.4,–
O=[N+]([O-])c1cc2ccc3ccc4ccc5ccc6ccc1c1c6c5c4c3c21,6.79,0.45
CC(=O)c1ccc([N+](=O)[O-])cc1,1.53,–
O=[N+]([O-])c1ccc2c3cccc4cccc(c5cccc1c52)c43,5.87,–
O=[N+]([O-])c1ccc(F)cc1F,1.89,-1.66
O=[N+]([O-])c1ccc2ccc3c([N+](=O)[O-])ccc4ccc1c2c43,4.44,5.06
O=[N+]([O-])c1ccc2ccc3cccc4cc(O)c1c2c34,4.34,1.89
O=[N+]([O-])C1=CC=CC2Nc3cccc([N+](=O)[O-])c3NC12 (stereo unspecified),2.29,1.26
O=[N+]([O-])c1ccc2cccc3c2c1-c1ccccc1-3,4.69,–
O=Cc1ccc([N+](=O)[O-])o1,1.01,0.64
CN1CCc2cc([N+](=O)[O-])ccc21,2.86,–
O=[N+]([O-])c1ccc(-c2ccccc2)cc1,3.77,-0.3
O=[N+]([O-])c1c2c(c3ccc4cccc5ccc1c3c45)CCCC2O (stereo unspecified),4.78,–
Cc1nc2cc([N+](=O)[O-])ccc2[nH]1,1.94,-0.51
O=[N+]([O-])c1ccc2ccccc2c1,3.24,–
O=[N+]([O-])c1ccc2ncccc2c1,1.84,-1.08
O=[N+]([O-])c1ccc2ccc3c4c(cc5ccc1c2c53)C(O)C(O)C=C4 (stereo unspecified),3.01,3.08
O=[N+]([O-])c1ccc2ccc3c4ccccc4cc4ccc1c2c43,5.87,2.82
O=[N+]([O-])c1cc2ccc3cc([N+](=O)[O-])cc4ccc(c1)c2c34,4.44,–
O=[N+]([O-])c1ccc2c3ccc([N+](=O)[O-])c4ccc5ccc6ccc1c2c6c5c43,6.07,3.6
O=[N+]([O-])c1cccc2[nH]c3ccccc3c12,3.51,-2
Nc1ccc([N+](=O)[O-])cc1[N+](=O)[O-],1.84,-1.74

SMILES,logP [1],Activity (Salmonella typhimurium)
O=[N+]([O-])c1ccc(Cl)c(Cl)c1Cl,3.61,-2.94
O=[N+]([O-])c1c2c(cc3c1ccc1ccccc13)C=CC(O)C2O (stereo unspecified),2.55,–
O=[N+]([O-])c1ccc2c(c1)Nc1cccc([N+](=O)[O-])c1N2,2.29,2.02
O=C1c2ccccc2-c2cc([N+](=O)[O-])ccc21,3.06,2.13
O=[N+]([O-])c1cc([N+](=O)[O-])c2ccc3cccc4ccc1c2c43,4.44,5.04
O=[N+]([O-])c1ccc2c(ccc3ccccc32)c1,4.23,2.11
O=[N+]([O-])c1cc2ccc3cccc4ccc(c1)c2c34,4.69,3.35
O=[N+]([O-])c1ccc2c(c1)Cc1cc(Br)ccc1-2,4.83,3.06
O=[N+]([O-])c1ccc(/C=C/c2ccccc2)cc1,4.18,–
O=[N+]([O-])c1cccc2c1-c1cccc3cccc-2c13,4.69,1.87
Cn1ccc2cccc([N+](=O)[O-])c21,2.5,–
O=[N+]([O-])c1ccc2ccc3cccc4c5ccccc5c1c2c34,5.87,–
O=[N+]([O-])c1c(O)cc2cccc3c2c1-c1ccccc1-3,4.66,2.26
O=[N+]([O-])c1cc2c3c(ccc4cccc(c43)CC2)c1,4.99,3.27
O=[N+]([O-])c1ccc2c3c(cccc13)CC2,3.85,0.58
O=C1c2cc([N+](=O)[O-])ccc2-c2ccc([N+](=O)[O-])cc21,2.84,–
O=[N+]([O-])c1ccccc1F,1.69,–
O=[N+]([O-])c1ccc(Cl)cc1,2.39,–
O=[N+]([O-])c1ccc(-c2ccc([N+](=O)[O-])cc2)cc1,3.52,1.17
O=[N+]([O-])c1cc2c3ccccc3ccc2c2ccccc12,5.41,1.75
O=Cc1ccccc1[N+](=O)[O-] [2-NITROBENZALDEHYDE],–,-1.92
O=C1OCCN1/N=C/c1ccc([N+](=O)[O-])o1 [FURAZOLIDONE],–,2.24
Cc1ncc([N+](=O)[O-])n1CCO [METRONIDAZOLE],-0.02,–
O=C1CN(/N=C/c2ccc([N+](=O)[O-])o2)C(=O)N1 [NITROFURANTOIN],–,1.03
